Experiment [1] concerns A431, human epidermoid carcinoma cells. The experiment can be described thus: Cell cycle analysis (FACS), mitotic arrest in G2/M. Type of experiment: cell-based. The following applies: Homo sapiens, A-431, 24 h, read-out: FACS Assay: concentration required to achieve inhibition in FACS assay. The essentials: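 A431 cells, 500,000/well at treatment, exposed to compounds at 0.01–1 μM final (0.1% DMSO) for 24 h. Ethanol-fixed cells RNase-treated (1 μg/ml, 37° C., 15 min), stained with propidium iodide (50 μg/ml, 30 min, RT). DNA ploidy by flow cytometry; mitotic arrest scored as G2/M accumulation.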
For orientation: In flow cytometry, cells or beads pass a laser one at a time.

A further experiment concerns bovine tubulin. Nature of the experiment: In vitro tubulin polymerization assay (turbidity at 340 nm). Type of experiment: biochemical. The following applies: 10 μM compound, 30 minute data point, vs 1% DMSO control. The essentials: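 Percent inhibition derives from turbidity (340 nm) at 30 min relative to 1% DMSO controls, read every minute at 37° C. Polymerization mix: 3 mg/ml bovine tubulin, <3% MAPs, in PIPES pH 7 G-PEM with 1 mM GTP, 1 mM MgCl2, 5% glycerol; enhancers also detectable.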

“And” between values parts separate entries of the source, which are not always exact repeats. Identical values can stand only once.

On to `c1cnc(OCc2ccc3c(c2)OCO3)c(-c2nnc(Nc3ccc4c(c3)OCCO4)o2)c1` [Compound 209, {5-[2-(Benzo[1,3]dioxol-5-ylmethoxy)-pyridin-3-yl]-[1,3,4]oxadiazol-2-yl}-(2,3-dihydro-benzo[1,4]dioxin-6-yl)-amine], for which the minimal effective concentration in experiment [1] is 1 µM. In the experiment on bovine tubulin, the “Tubulin Assay: percent inhibition at 10 μM based on 30 minute data” value (from here on “Tubulin Assay: percent inhibition”) stood at 80%.
On to `c1ccc(CNc2ncccc2-c2nnc(Nc3ccc4c(c3)OCCO4)o2)nc1` [Compound 207, {3-[5-(2,3-Dihydro-benzo[1,4]dioxin-6-ylamino)-[1,3,4]oxadiazol-2-yl]-pyridin-2-yl}-pyridin-2-ylmethyl-amine], for which the minimal effective concentration in experiment [1] worked out at 0.025 µM. The “Tubulin Assay: percent inhibition” value in the experiment with bovine tubulin worked out at 87%.
In the same order, the values of `CS(=O)(=O)c1ccc(-c2nnc(-c3cccnc3NCc3ccc4c(c3)OCCO4)[nH]2)cc1` [Compound 105, (2,3-Dihydro-benzo[1,4]dioxin-6-ylmethyl)-{3-[5-(4-methanesulfonyl-phenyl)-4H-[1,2,4]triazol-3-yl]-pyridin-2-yl}-amine] are 1 µM and 91%.
On to `COc1ccc(CNc2ncccc2-c2nnc(Nc3ccc4c(c3)OCCO4)o2)cc1OC` [Compound 165, {3-[5-(2,3-Dihydro-benzo[1,4]dioxin-6-ylamino)-[1,3,4]oxadiazol-2-yl]-pyridin-2-yl}-(3,4-dimethoxy-benzyl)-amine], for which the minimal effective concentration in experiment [1] is 0.1 µM. Further, the “Tubulin Assay: percent inhibition” value in the experiment with bovine tubulin came to 86%.
In the same order, the values of `Fc1ccc(CNc2ncccc2-c2nnc(-c3ccc4c(c3)OCO4)[nH]2)cc1F` [Compound 101, [3-(5-Benzo[1,3]dioxol-5-yl-4H-[1,2,4]triazol-3-yl)-pyridin-2-yl]-(3,4-difluoro-benzyl)-amine] are 1 µM and 66%.
In the same order, the values of `COc1cccc(Nc2nnc(-c3cccnc3NCc3ccc(F)c(F)c3)[nH]2)c1` [Compound 45, (3,4-Difluoro-benzyl)-{3-[5-(3-methoxy-phenylamino)-4H-[1,2,4]triazol-3-yl]-pyridin-2-yl}-amine] are 1 µM and 83%.
Regarding `CS(=O)(=O)c1ccc(-c2nnc(-c3cccnc3NCc3ccco3)[nH]2)cc1` [Compound 98, Furan-2-ylmethyl-{3-[5-(4-methanesulfonyl-phenyl)-4H-[1,2,4]triazol-3-yl]-pyridin-2-yl}-amine], the minimal effective concentration in experiment [1] turned out to be 1 µM. Further, the “Tubulin Assay: percent inhibition” value in the experiment with bovine tubulin is 83%.
With `COc1cccc(-c2nnc(-c3ccccc3NCc3ccc4[nH]ncc4c3)[nH]2)c1` [Compound 136, (1H-Indazol-5-ylmethyl)-{2-[5-(3-methoxy-phenyl)-4H-[1,2,4]triazol-3-yl]-phenyl}-amine], the minimal effective concentration in experiment [1] worked out at 10 µM. In the experiment with bovine tubulin, the “Tubulin Assay: percent inhibition” value was 32%.
On to `CS(=O)(=O)c1ccc(-c2nnc(-c3cccnc3NCC3CCCO3)[nH]2)cc1` (stereo not drawn) [Compound 106, {3-[5-(4-Methanesulfonyl-phenyl)-4H-[1,2,4]triazol-3-yl]-pyridin-2-yl}-(tetrahydro-furan-2-ylmethyl)-amine], for which the minimal effective concentration in experiment [1] was determined as 0.1 µM. The “Tubulin Assay: percent inhibition” value in the experiment with bovine tubulin came to 79%.
For `COc1cccc(Nc2ncc(-c3ccccc3NCc3ccc4c(c3)OCCO4)o2)c1` [Compound 250, (5-{2-[(2,3-Dihydro-benzo[1,4]dioxin-6-ylmethyl)-amino]-phenyl}-oxazol-2-yl)-(3-methoxy-phenyl)-amine], in experiment [1], the minimal effective concentration is 1 µM. The “Tubulin Assay: percent inhibition” value in the experiment with bovine tubulin is on record as 60%.
For `Fc1ccc(CNc2ncccc2-c2nnc(Nc3ccc4c(c3)OCO4)o2)cc1` [Compound 172, {3-[5-(Benzo[1,3]dioxol-5-ylamino)-[1,3,4]oxadiazol-2-yl]-pyridin-2-yl}-(4-fluoro-benzyl)-amine], the minimal effective concentration in experiment [1] turned out to be 0.1 µM. Further, the “Tubulin Assay: percent inhibition” value in the experiment with bovine tubulin is 95% and 87%.
Consider `COc1cccc(-c2nnc(-c3cccnc3NCc3ccc(F)c(F)c3)[nH]2)c1` [Compound 100, (3,4-Difluoro-benzyl)-{3-[5-(3-methoxy-phenyl)-4H-[1,2,4]triazol-3-yl]-pyridin-2-yl}-amine], for which, in experiment [1], the minimal effective concentration came to 10 µM. In addition, the “Tubulin Assay: percent inhibition” value in the experiment on bovine tubulin amounted to 70%.
